The source of these data is patent publication US5786480A, “4-substituted pyrazoloquinoline derivatives” (Schering Corporation, priority 1996, dated 1998).

The structures appear in SMILES notation. In brackets after ≈: the same amount, converted by molar mass. A value given as a limit tells only on which side of the number the result lay.

Series [1] concerns HSV Early Gene Expression. As to the kind of experiment: Transient Expression Assay for Effects Against HSV Early Gene Expression (beta Galactosidase Assay, βgal). Type of series: cell-based. On the procedure: (§1) The compound toxicity assay (3H-LEU), Plaque Reduction Assay for HSV Antiviral Activity (Plaque), and Transient Expression Assay for Effects Against HSV Early Gene Expression (β Galactosidase Assay or βgal) were carried out as set forth in U.S. Pat. No. 5,175,151 which is hereby incorporated by reference.

In series [2] the test system is HSV. As to the kind of experiment: Plaque Reduction Assay for HSV Antiviral Activity (Plaque). Type of series: cell-based. On the procedure: as §1
For orientation: Plaque reduction counts the foci of infection that form in a cell layer.

Series [3] in a line: compound toxicity assay (3H-LEU). Type of series: cell-based. On the procedure: as §1
A further series concerns HSV-2. The conditions noted are these: Haines et al., U.S. Pat. No. 4,757,088; cited from earlier work.
In series [4] the test system is HSV. As to conditions: humans; Haines et al.; cited from earlier work.
Series [5] concerns herpes virus. The conditions noted are these: mammals; Haines et al., U.S. Pat. No. 4,757,088; cited from earlier work.
The next series has as its system HSV-1. The conditions noted are these: Haines et al., U.S. Pat. No. 4,757,088; cited from earlier work.
For series [6], the system named is herpes virus. As to conditions: addition of panthothenic acid or its alcohol and salt forms, dexpanthenol and pantothenate; Haines et al.; cited from earlier work.

For the compound `COc1ccc2nc3c(cc2c1)c(C)nn3C(=O)[C@H](C)N` [(22)], the half-inhibitory concentration (IC50) (in series [1]; in the series on HSV [2]) was 0.2 µg/mL (≈ 0.703 µM) throughout.

As for `COc1ccc2nc3[nH]nc(C)c3c(NCC(=O)O)c2c1` [(27)], in series [1], the IC50 (usually the point on the concentration scale where inhibition reaches its midpoint) worked out at 20 µg/mL (≈ 69.9 µM).

The compound `CCCCNc1c2cc(OC)cc(C)c2nc2[nH]nc(C)c12` [(19)] returned an IC50 in series [1] of 3 µg/mL (≈ 10.1 µM). The CC50 (commonly the concentration that lowers cell viability or growth by half) in series [3] is 21.5 µg/mL (≈ 72.1 µM).

On to `COc1ccc2nc3c(cc2c1)c(C)nn3C(=O)[C@@H](N)C(C)C` [(21)], for which the figures for the IC50 (in series [1]; with HSV [2]) were 0.2 µg/mL (≈ 0.64 µM) and 20 µg/mL (≈ 64 µM), respectively.

For `COc1ccc2nc3c(c(C)nn3C(=O)[C@H](C)N)c(Cl)c2c1` [(32)], the IC50 in series [1] was determined as 1.8 µg/mL (≈ 5.65 µM); with HSV [2], 0.2 µg/mL (≈ 0.627 µM).

Turning to `COc1ccc2nc3[nH]nc(C)c3c(NCCN3CCOCC3)c2c1` [(4)], the half-maximal inhibitory concentration (IC50) was 20 µg/mL (≈ 58.6 µM) in series [1] and 10 µg/mL (≈ 29.3 µM) in the series on HSV [2]. The compound also registered a CC50 in series [3] of 100 µg/mL (≈ 293 µM).

Regarding `CCCCNc1c2cc(OC)ccc2nc2[nH]nc(C)c12` [(17)], the IC50 in series [1] was less than 3 µg/mL. The cytotoxic concentration (CC50) in series [3] was determined as 3.2 µg/mL (≈ 11.3 µM).

On to `COc1ccc2nc3c(cc2c1)c(C)nn3C(=O)C(C)(C)N` [(25)], for which the IC50 in series [1] was 0.2 µg/mL (≈ 0.67 µM); with HSV [2], 20 µg/mL (≈ 67 µM).

Regarding `COc1ccc2nc3[nH]nc(C)c3c(NCCc3ccccn3)c2c1` [(5)], the IC50 was 1 µg/mL (≈ 3 µM) in series [1] and 7.5 µg/mL (≈ 22.5 µM) in the series on HSV [2].

For the compound `COc1ccc2nc3[nH]nc(C)c3c(NCCCN(C)C)c2c1` [(20)], in series [1], half-maximal inhibition (IC50) was put at 0.8 µg/mL (≈ 2.55 µM).

On to `COc1ccc2nc3c(c(C)nn3C(=O)[C@@H](N)C(C)C)c(NCCN3CCOCC3)c2c1` [(23)], for which the IC50 stood at 0.2 µg/mL (≈ 0.454 µM) in series [1] and 20 µg/mL (≈ 45.4 µM) with HSV [2].

The compound `CCCCNc1c2cc(C)ccc2nc2[nH]nc(C)c12` [(18)] yielded an IC50 in series [1] of 3 µg/mL (≈ 11.2 µM). In series [3], this compound registered a CC50 of 21.5 µg/mL (≈ 80.1 µM).

As for `COc1ccc2nc3[nH]nc(C)c3c(NCC(=O)NCCN3CCOCC3)c2c1` [(30)], the 50% inhibitory concentration (IC50) in series [1] came out at 2 µg/mL (≈ 5.02 µM); in the series on HSV [2] it was 20 µg/mL (≈ 50.2 µM).

Turning to `COc1ccc2nc3[nH]nc(C)c3c(NCC(=O)NCCN3CCCCC3)c2c1` [(29)], the 50% inhibitory concentration (IC50) in series [1] is 6 µg/mL (≈ 15.1 µM); with HSV [2] it was 20 µg/mL (≈ 50.4 µM).

Consider `COc1ccc2nc3[nH]nc(C)c3c(NCC(=O)NCCCN3CCCC3=O)c2c1` [(28)], for which the figures for the half-maximal inhibitory concentration (IC50) (in series [1]; with HSV [2]) were 2 µg/mL (≈ 4.87 µM) and 20 µg/mL (≈ 48.7 µM), respectively.

`CNCC(=O)n1nc(C)c2cc3cc(OC)ccc3nc21` [(24)]: the IC50 in series [1] was 0.2 µg/mL (≈ 0.703 µM); with HSV [2], 2 µg/mL (≈ 7.03 µM).

Regarding `COc1ccc2nc3c(c(C)nn3C(=O)[C@@H](C)N)c(Cl)c2c1` [(33)], the IC50 amounted to 0.5 µg/mL (≈ 1.57 µM) in series [1] and 0.2 µg/mL (≈ 0.627 µM) with HSV [2].

As to `CCN(CC)CC(=O)Nc1c(C)cccc1C` [lidocaine, 2-(diethylamino)-N-(2,6-dimethylphenyl)acetamide], the “antiviral agent in cell culture against HSV-2” value in the series on HSV-2 is “antiviral agent in cell culture against HSV-1 and HSV-2”. For the same compound, in the series on HSV [4], the “effective in the treatment of HSV oral and genital lesions” value was “particularly effective”. Further, the “able to treat herpes virus infections” value in the series on herpes virus [5] is recorded as “able to treat herpes virus infections of mammals”. Moreover, the “antiviral agent in cell culture against HSV-1” value in the series with HSV-1 is listed as “antiviral agent in cell culture against HSV-1”. In addition, the “enhancement of antiviral activity” value in the series on herpes virus [6] is on record as “significantly enhances”.

Take `CCC(C)[C@H](N)C(=O)n1nc(C)c2c(Cl)c3cc(OC)ccc3nc21` (some centres unmarked) [(31)]: the figures for the IC50 (in series [1]; in the series on HSV [2]) were 0.2 µg/mL (≈ 0.554 µM) and 0.8 µg/mL (≈ 2.22 µM), respectively.

In the case of `COc1ccc2nc3[nH]nc(C)c3c(NCCO)c2c1` [(3)], the IC50 came to 1.3 µg/mL (≈ 4.77 µM) in series [1] and 2.3 µg/mL (≈ 8.45 µM) in the series on HSV [2]. This compound displayed a CC50 in series [3] of 8.2 µg/mL (≈ 30.1 µM).

In series [1], `COc1ccc2nc3[nH]nc(C)c3c(NCCOCCO)c2c1` [(1)] gave an IC50 of 5 µg/mL (≈ 15.8 µM).
